From PMC11527692, “Tailored biosynthesis of diosmin through reconstitution of the flavonoid pathway in Nicotiana benthamiana” (Frontiers in Plant Science, 2024)

What was measured:
Cs1,6RhaT = molecular target: T1, Cs1,6RhaT (Citrus sinensis, UniProt A7ISD3); test: substrate feeding of E. coli expressing the GST fusion, UPLC-DAD-QToF/MS of product; format: cell-based; conditions: product diosmin; 100 μM substrate, 28 °C, 3 h; whole culture
T1 sequence (A7ISD3 1-475): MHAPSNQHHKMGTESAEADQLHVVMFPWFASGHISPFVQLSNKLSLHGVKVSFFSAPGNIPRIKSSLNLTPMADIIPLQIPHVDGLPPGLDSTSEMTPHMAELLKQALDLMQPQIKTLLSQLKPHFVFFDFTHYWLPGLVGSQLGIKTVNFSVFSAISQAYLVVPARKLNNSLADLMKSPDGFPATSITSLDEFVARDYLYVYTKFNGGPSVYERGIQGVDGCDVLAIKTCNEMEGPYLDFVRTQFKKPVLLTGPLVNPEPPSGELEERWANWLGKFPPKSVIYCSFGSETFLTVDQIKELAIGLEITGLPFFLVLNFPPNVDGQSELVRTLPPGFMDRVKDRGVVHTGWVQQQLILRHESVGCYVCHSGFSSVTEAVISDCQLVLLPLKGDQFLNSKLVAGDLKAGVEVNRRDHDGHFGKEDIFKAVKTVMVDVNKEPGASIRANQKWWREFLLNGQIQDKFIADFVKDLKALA

PaF4′OMT = molecular target: T2, PaF4′OMT (Plagiochasma appendiculatum, UniProt A0A1X9Y2Y6); test: substrate feeding of E. coli expressing the GST fusion, HPLC of product; format: cell-based; conditions: product diosmetin; 100 μM substrate (methods name diosmetin, results name luteolin), 28 °C, 3 h; whole culture
T2 sequence (A0A1X9Y2Y6 1-391): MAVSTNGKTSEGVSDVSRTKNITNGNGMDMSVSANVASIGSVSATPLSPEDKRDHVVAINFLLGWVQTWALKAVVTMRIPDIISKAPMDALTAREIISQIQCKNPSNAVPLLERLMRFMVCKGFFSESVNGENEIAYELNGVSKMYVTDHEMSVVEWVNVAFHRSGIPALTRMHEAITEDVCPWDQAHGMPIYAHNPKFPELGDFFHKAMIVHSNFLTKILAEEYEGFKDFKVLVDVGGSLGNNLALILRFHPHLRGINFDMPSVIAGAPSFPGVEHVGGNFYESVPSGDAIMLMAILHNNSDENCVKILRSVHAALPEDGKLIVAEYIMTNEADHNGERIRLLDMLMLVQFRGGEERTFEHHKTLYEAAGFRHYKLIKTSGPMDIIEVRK

Structure (SMILES) | substrate feeding of E. coli expressing the GST fusion, UPLC-DAD-QToF/MS of prod (Cs1,6RhaT) | substrate feeding of E. coli expressing the GST fusion, HPLC of product (PaF4′OMT)
COc1ccc(-c2cc(=O)c3c(O)cc(O[C@@H]4O[C@H](CO)[C@@H](O)[C@H](O)[C@H]4O)cc3o2)cc1O [diosmetin 7-O-β-D-glucopyranoside] | the cells expressing Cs1,6RhaT produced the most diosmin | 
O=c1cc(-c2ccc(O)c(O)c2)oc2cc(O)cc(O)c12 [luteolin] |  | PaF4′OMT produced the most diosmetin from luteolin
